Article PMC7613998, “Development of selective inhibitors of phosphatidylinositol 3-kinase C2α” (Nature Chemical Biology, 2022)

Assays:
Experiment in all cases: biochemical
Set-up in all cases: SelectScreen Adapta purified lipid kinase panel, 1 uM compound, 10 uM ATP, per cent inhibition
Conditions in all cases: ATP=10; Technology=Adapta; 10 uM ATP
PIP5K1A = PIP5K1A (Homo sapiens, UniProt Q99755)
Protocol: (§1) As PI3KC2α is related to other PI3Ks and to PI3K-like protein kinases such as mTOR, the selectivity of PITCOINs was determined in a panel of biochemical assays. […] Finally, the high specificity of PITCOINs for PI3KC2α was verified by Kinobead profiling experiments. In this approach, the ability of PITCOINs to compete the affinity capture of cellular kinases on immobilized nonselective kinase inhibitors (Kinobeads) is analyzed by mass spectrometry (MS)[31]. […] Four nonkinase weak off-targets were globally found for the three inhibitors with only FECH[32] common to the three PITCOINs (Supplementary Dataset).  Extended Data Fig. 2 Lipid kinase inhibitor profile of PITCOIN1-3. (a–c) Selectivity profiling of PITCOIN1-3 (1 µM) with purified lipid kinases in the presence of 10 µM ATP. […] Data are presented as mean ± SD from two independent experiments. (d, e) IC50 measurements of PITCOIN1-3 against purified recombinant class I PI3K p110α/p85α (d) or purified class III PI3K VPS34 complex II (e). 10 µM ATP and 20 µM PIP3 (for p110α/p85α) or 200 µM PI (for VPS34 complex II) were used as substrates. […] Data are presented as mean ± SD from two independent experiments. Source data

PIK3C2B (PI3K-C2 beta) = PIK3C2B (PI3K-C2 beta) (Homo sapiens, UniProt O00750)
Protocol: as §1

[1] = molecular target: PIK3CA/PIK3R1 (p110 alpha/p85 alpha) (Homo sapiens, UniProt P42336)
Protocol: as §1

[2] = molecular target: PIK3CA E545K/PIK3R1 (p110 alpha E545K/p85 alpha) (Homo sapiens, UniProt P42336, E545K)
Protocol: as §1

PIK3C2G (PI3K-C2 gamma) = molecular target: T1, PIK3C2G (PI3K-C2 gamma) (Homo sapiens, UniProt O75747)
T1 sequence (O75747 1-1486): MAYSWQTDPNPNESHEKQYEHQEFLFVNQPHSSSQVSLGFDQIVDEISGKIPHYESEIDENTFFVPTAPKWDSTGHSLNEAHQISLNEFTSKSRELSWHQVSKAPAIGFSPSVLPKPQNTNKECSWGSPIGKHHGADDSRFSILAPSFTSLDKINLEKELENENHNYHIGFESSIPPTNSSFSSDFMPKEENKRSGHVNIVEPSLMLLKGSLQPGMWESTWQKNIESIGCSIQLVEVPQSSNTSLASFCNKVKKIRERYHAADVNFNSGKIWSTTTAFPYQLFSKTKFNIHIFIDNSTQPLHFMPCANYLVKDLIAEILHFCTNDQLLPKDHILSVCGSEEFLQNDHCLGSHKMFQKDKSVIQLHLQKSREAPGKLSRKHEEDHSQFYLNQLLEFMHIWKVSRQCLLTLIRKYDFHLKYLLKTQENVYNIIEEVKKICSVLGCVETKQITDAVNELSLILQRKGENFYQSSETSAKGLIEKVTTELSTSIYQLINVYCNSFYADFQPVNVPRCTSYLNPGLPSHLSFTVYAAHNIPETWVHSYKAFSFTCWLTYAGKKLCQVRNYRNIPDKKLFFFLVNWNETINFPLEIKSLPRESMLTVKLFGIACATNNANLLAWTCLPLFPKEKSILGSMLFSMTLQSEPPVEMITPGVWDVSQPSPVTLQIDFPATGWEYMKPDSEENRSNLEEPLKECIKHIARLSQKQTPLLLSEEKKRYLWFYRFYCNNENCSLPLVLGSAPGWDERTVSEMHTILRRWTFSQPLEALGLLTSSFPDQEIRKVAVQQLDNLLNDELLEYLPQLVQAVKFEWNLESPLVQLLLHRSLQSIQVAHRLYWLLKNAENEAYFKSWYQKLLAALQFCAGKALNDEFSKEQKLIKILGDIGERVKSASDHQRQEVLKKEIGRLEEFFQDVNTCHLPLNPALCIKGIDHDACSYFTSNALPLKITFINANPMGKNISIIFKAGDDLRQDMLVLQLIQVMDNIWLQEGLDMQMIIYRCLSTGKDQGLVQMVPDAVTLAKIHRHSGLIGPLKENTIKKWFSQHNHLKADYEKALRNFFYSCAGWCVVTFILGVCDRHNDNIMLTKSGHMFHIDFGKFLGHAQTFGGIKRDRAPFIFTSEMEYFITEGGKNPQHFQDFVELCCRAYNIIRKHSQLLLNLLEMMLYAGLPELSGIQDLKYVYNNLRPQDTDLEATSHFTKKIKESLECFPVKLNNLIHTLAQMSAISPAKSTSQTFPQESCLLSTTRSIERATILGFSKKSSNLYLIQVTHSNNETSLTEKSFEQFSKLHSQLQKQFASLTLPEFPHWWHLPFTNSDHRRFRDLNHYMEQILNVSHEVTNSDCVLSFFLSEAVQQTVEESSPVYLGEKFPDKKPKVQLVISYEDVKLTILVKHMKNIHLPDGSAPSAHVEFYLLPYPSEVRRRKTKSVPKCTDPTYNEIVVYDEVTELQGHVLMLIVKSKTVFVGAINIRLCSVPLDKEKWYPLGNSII
Protocol: as §1

PIP4K2A = molecular target: T2, PIP4K2A (Homo sapiens, UniProt P48426)
T2 sequence (P48426 1-406): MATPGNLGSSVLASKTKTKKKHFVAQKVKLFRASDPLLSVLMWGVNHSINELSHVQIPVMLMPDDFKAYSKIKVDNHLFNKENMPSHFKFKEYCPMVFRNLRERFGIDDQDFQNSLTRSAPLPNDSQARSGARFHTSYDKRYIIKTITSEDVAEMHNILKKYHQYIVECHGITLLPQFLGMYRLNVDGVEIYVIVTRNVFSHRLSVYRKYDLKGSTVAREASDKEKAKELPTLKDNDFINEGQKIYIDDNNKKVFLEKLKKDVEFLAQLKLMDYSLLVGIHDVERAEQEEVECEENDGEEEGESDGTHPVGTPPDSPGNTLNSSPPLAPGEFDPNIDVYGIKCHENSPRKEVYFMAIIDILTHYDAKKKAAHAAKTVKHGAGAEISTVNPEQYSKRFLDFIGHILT
Protocol: as §1

PIK3C2B (PI3K-C2 beta), sequence (O00750 whole entry): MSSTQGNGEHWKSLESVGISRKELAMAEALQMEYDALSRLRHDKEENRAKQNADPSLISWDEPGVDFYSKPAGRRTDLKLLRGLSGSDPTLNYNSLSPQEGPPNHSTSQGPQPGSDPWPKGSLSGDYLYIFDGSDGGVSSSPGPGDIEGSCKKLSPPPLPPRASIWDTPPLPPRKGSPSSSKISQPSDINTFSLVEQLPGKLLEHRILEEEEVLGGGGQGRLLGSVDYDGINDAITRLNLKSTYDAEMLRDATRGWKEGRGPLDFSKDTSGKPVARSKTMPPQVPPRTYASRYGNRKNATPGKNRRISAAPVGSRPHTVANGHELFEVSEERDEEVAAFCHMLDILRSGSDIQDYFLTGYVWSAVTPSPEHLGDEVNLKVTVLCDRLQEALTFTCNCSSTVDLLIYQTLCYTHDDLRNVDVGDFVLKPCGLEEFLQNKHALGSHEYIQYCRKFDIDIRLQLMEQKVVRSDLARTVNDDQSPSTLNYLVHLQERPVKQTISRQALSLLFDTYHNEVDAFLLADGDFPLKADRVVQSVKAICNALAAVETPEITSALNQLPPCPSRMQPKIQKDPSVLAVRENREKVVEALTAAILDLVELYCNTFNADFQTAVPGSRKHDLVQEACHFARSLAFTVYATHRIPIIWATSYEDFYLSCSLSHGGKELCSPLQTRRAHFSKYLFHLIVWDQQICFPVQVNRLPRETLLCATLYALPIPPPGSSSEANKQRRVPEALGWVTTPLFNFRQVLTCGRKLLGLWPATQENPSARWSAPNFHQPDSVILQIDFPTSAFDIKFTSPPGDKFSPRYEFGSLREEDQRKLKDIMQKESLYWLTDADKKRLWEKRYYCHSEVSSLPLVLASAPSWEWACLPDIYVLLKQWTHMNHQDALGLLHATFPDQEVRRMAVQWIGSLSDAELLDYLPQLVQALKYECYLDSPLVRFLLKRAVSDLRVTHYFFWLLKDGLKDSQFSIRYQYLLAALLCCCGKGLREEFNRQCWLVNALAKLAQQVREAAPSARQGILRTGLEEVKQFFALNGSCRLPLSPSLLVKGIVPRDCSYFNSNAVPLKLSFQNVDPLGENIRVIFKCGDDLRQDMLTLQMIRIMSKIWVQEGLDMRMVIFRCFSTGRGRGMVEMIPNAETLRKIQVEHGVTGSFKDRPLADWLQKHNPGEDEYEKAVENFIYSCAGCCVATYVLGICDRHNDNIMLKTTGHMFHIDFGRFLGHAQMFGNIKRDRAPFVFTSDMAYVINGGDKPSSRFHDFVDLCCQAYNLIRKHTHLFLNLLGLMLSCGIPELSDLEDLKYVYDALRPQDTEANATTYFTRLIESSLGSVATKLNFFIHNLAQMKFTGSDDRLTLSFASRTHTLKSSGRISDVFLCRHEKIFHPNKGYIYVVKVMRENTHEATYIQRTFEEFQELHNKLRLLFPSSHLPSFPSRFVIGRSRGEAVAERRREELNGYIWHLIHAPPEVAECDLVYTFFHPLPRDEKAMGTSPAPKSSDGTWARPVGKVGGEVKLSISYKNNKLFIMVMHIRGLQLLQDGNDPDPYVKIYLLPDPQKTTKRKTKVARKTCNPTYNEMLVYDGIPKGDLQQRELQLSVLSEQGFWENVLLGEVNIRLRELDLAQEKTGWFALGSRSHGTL
PIP5K1A, sequence (Q99755 whole entry): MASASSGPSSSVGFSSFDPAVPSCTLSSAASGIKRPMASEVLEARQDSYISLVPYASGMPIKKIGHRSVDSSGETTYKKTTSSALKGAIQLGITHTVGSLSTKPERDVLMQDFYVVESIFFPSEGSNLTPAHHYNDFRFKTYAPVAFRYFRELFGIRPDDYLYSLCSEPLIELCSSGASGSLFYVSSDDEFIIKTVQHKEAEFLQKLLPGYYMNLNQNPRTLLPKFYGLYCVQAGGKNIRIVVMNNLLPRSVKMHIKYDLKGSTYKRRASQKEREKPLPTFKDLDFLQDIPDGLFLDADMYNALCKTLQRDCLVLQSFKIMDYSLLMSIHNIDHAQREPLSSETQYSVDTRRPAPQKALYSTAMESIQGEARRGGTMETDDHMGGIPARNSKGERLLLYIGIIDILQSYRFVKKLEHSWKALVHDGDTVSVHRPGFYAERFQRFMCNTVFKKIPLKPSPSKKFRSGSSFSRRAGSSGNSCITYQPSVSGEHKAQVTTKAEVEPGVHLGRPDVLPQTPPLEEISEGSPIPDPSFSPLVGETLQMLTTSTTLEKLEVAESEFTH
PIK3CA/PIK3R1 (p110 alpha/p85 alpha), sequence (P42336 whole entry): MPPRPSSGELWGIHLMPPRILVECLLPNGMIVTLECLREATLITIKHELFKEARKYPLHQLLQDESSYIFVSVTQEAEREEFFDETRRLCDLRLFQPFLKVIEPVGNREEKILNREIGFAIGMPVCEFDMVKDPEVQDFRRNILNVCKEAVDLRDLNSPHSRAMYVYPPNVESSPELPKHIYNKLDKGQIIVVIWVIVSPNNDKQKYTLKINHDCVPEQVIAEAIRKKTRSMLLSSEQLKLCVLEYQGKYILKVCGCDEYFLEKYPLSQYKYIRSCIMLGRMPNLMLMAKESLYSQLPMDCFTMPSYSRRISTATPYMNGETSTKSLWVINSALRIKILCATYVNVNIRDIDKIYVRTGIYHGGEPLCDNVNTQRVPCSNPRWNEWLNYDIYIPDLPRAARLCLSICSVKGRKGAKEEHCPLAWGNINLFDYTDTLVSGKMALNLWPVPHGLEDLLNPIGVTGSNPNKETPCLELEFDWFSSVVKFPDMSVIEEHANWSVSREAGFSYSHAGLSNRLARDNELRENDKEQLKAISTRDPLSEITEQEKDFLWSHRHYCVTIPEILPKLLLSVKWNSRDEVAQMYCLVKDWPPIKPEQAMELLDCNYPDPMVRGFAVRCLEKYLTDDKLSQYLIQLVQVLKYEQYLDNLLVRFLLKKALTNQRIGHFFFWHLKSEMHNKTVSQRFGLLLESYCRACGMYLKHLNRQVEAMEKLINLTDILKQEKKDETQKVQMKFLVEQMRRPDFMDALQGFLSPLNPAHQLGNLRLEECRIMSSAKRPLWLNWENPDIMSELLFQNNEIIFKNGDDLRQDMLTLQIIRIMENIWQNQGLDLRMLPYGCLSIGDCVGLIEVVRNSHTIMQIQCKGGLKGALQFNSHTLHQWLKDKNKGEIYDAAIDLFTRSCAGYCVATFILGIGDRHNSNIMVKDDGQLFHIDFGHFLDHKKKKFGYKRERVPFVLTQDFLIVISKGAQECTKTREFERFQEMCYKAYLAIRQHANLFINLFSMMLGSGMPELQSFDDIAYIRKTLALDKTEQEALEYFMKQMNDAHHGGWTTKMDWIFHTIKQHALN
PIK3CA/PIK3R1 (p110 alpha/p85 alpha), sequence (P27986 whole entry partner): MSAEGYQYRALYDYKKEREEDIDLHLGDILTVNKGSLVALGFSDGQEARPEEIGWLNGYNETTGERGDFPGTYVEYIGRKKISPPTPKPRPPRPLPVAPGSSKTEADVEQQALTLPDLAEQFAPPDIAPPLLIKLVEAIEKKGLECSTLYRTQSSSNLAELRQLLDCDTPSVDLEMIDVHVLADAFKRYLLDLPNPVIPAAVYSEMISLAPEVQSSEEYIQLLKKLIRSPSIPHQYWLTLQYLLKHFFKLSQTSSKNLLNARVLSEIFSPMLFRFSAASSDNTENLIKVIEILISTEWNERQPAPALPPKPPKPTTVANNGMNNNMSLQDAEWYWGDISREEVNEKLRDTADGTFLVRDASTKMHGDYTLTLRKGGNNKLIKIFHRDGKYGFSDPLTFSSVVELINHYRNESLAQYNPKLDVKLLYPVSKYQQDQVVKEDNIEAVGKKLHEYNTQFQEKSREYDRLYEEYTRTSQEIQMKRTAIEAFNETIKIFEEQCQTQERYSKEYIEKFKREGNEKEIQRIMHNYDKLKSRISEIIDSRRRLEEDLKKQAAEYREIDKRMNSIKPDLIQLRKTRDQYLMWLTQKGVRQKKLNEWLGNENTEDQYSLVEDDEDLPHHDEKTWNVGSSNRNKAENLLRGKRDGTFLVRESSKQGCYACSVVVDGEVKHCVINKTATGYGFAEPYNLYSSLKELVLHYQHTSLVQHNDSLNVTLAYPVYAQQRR
PIK3CA E545K/PIK3R1 (p110 alpha E545K/p85 alpha), sequence (P42336 whole entry E545K): as the sequence (P42336 whole entry) above, with E545K counted along it
PIK3CA E545K/PIK3R1 (p110 alpha E545K/p85 alpha), sequence (P27986 whole entry partner): as the sequence (P27986 whole entry partner) above

inhibition at 1 µM (PIP5K1A) | inhibition at 1 µM (PIK3C2B (PI3K-C2 beta)) | inhibition at 1 µM [1] | inhibition at 1 µM [2] | inhibition at 1 µM (PIK3C2G (PI3K-C2 gamma)) | inhibition at 1 µM (PIP4K2A) | SMILES
4% | 12% | 5% | 2% | 30% | 13% | O=C(CSc1nc2nccnc2c(=O)n1CCc1ccccc1)Nc1nccs1 [compound 1, PITCOIN1]
-6% | 40% | -1% | 0% | 9% | 2% | O=C(CSc1nc2nccnc2c(=O)n1CCc1ccccc1)Nc1nc(-c2cccc(O)c2)cs1 [compound 2, PITCOIN2]
-7% | 9% | 17% | 4% | 6% | -15% | CS(=O)(=O)Nc1cccc(-c2csc(NC(=O)CSc3nc4nccnc4c(=O)n3CCc3ccccc3)n2)c1 [compound 3, PITCOIN3]
